Results reported in ChEMBL document CHEMBL4420076, “Amylin and calcitonin receptor agonist” (2017).
Converted amounts (≈) assume the structure as drawn. Numbered stars: 1 amine (or outer) side, 2 acyl side, 3 side chain; on linkers, the order of the positions; unused ones are H or OH. Peptide text beside a SMILES is read from it. * marks the point of attachment. C20 diacid = O=C(O)CCCCCCCCCCCCCCCCCCC(=O)*; C18 diacid = O=C(O)CCCCCCCCCCCCCCCCC(=O)*; γGlu = O=C(O)[C@H](CCC(=O)[*:2])N[*:1]; C14 diacid = O=C(O)CCCCCCCCCCCCC(=O)*; C12 diacid = O=C(O)CCCCCCCCCCC(=O)*; AEEA = NCCOCCOCC(=O)O

Experiments:
Rattus norvegicus [1] = assay: Reduction in food intake in Sprague-Dawley rat at 3 nmol/kg measured 0 to 24 hrs post dose relative to control; assay type: functional; design: scale not given: the % may be the effect or the level left
Rattus norvegicus [2] = assay: Reduction in food intake in Sprague-Dawley rat at 3 nmol/kg measured 24 to 48 hrs post dose relative to control; assay type: functional; design: scale not given: the % may be the effect or the level left
[3] = molecular target: T1, Amylin receptor AMY3; CALCR/RAMP3 (Homo sapiens, UniProt O60896+P30988); assay: Agonist activity at human amylin receptor expressed in BHK570 cells co-expressing RAMP3 assessed as increase in intracellular cAMP concentration incubated for 3 hrs in absence of albumin by CRE luciferase reporter gene assay; assay type: functional, cell-based
T1 sequence (P30988 whole entry): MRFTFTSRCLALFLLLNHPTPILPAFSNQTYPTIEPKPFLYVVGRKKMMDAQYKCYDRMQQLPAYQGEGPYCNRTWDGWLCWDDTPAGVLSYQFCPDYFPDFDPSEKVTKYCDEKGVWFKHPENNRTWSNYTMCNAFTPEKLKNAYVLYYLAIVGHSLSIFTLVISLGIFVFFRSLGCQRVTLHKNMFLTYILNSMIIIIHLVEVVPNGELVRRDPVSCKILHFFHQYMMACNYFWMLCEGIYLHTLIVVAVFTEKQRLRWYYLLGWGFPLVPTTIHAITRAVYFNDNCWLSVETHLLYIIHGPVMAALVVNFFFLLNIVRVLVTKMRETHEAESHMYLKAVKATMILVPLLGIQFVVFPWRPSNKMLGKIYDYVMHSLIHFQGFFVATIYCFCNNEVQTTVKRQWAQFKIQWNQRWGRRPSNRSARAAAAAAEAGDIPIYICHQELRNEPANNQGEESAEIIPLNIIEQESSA
T1 sequence (O60896 whole entry): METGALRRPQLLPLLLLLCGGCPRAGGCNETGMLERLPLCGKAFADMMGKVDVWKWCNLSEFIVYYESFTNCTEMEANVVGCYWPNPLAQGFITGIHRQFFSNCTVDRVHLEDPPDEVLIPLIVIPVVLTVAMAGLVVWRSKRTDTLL

Calcitonin receptor [4] = molecular target: T2, Calcitonin receptor (Homo sapiens, UniProt P30988); assay: Agonist activity at human calcitonin receptor expressed in BHK570 cells assessed as increase in intracellular cAMP concentration incubated for 3 hrs in absence of albumin by CRE luciferase reporter gene assay; assay type: functional, cell-based
T2 sequence (P30988 whole entry): T1 sequence (P30988 whole entry)

[5] = Solubility in 100 mM bistrispropane buffer at pH 6.5 incubated for 18 hrs by UPLC analysis; assay type: physicochemical
[6] = molecular target: T1, Amylin receptor AMY3; CALCR/RAMP3; assay: Displacement of [125I]-labeled rat amylin from human amylin receptor expressed in BHK tkts13 whole cells co-expressing RAMP3 incubated for 60 mins by scintillation proximity assay; assay type: cell-based
[7] = Solubility in 100 mM glycylglycine buffer at pH 3.0 incubated for 18 hrs by UPLC analysis; assay type: physicochemical
[8] = Solubility in 100 mM glycylglycine buffer at pH 4.0 incubated for 18 hrs by UPLC analysis; assay type: physicochemical
[9] = Solubility in 100 mM bistrispropane buffer at pH 6.0 incubated for 18 hrs by UPLC analysis; assay type: physicochemical
[10] = Solubility in 100 mM glycylglycine buffer at pH 5.0 incubated for 18 hrs by UPLC analysis; assay type: physicochemical
[11] = Solubility in 100 mM bistrispropane buffer at pH 7.0 incubated for 18 hrs by UPLC analysis; assay type: physicochemical
[12] = Solubility in 100 mM bistrispropane buffer at pH 7.5 incubated for 18 hrs by UPLC analysis; assay type: physicochemical
[13] = Solubility in 100 mM bistrispropane buffer at pH 8.0 incubated for 18 hrs by UPLC analysis; assay type: physicochemical
Calcitonin receptor [14] = molecular target: T2, Calcitonin receptor; assay: Agonist activity at human calcitonin receptor expressed in BHK570 cells assessed as increase in intracellular cAMP concentration incubated for 3 hrs in presence of 10% FBS by CRE luciferase reporter gene assay; assay type: functional, cell-based

EC50 [3] [nM] | EC50 (Calcitonin receptor [4]) [nM] | solubility at 18 h [5] [µM] | IC50 [6] [nM] | solubility at 18 h [7] [µM] | solubility at 18 h [8] [µM] | solubility at 18 h [9] [µM] | solubility at 18 h [10] [µM] | solubility at 18 h [11] [µM] | solubility at 18 h [12] [µM] | solubility at 18 h [13] [µM] | EC50 (Calcitonin receptor [14]) [nM] | Structure (SMILES) | Activity (Rattus norvegicus [1]) [%] | Activity (Rattus norvegicus [2]) [%]
0.023 | 0.008 | 5 (≈ 18.2 µg/mL) | 8.97 |  |  |  |  |  |  |  |  | CC(C)C[C@H](NC(=O)[C@H](C)NC(=O)[C@H](C)NC(=O)[C@@H](NC(=O)[C@H](CO)NC(=O)[C@H](CC(C)C)NC(=O)[C@H](CCC(=O)O)NC(=O)[C@H](CO)NC(=O)[C@H](C)NC(=O)[C@H](CCC(=O)O)NC(=O)CCCCCCCCCCC(=O)O)[C@@H](C)O)C(=O)NCC(=O)N[C@@H](CCCNC(=N)N)C(=O)N[C@@H](CC(C)C)C(=O)N[C@@H](CO)C(=O)N[C@@H](C)C(=O)N[C@@H](CCC(=O)O)C(=O)N[C@@H](CC(C)C)C(=O)N[C@@H](Cc1cnc[nH]1)C(=O)N[C@@H](CCC(=O)O)C(=O)N[C@@H](CC(C)C)C(=O)N[C@@H](C)C(=O)N[C@H](C(=O)N[C@@H](CC(C)C)C(=O)N1CCC[C@H]1C(=O)N[C@@H](CCCNC(=N)N)C(=O)N[C@H](C(=O)N[C@@H](CCC(=O)O)C(=O)N[C@H](C(=O)NCC(=O)N1CCC[C@H]1C(=O)N[C@@H](CCC(=O)O)C(=O)N[C@@H](CO)C(=O)N1CCC[C@H]1C(N)=O)[C@@H](C)O)[C@@H](C)O)[C@@H](C)O ({C12 diacid}-EASELSTAALGRLSAELHELATLPRTETGPESP-NH2) | 2 | -12
0.027 | 0.007 | ≥ 200 | 8.38 | ≥ 200 | ≥ 200 | ≥ 200 | ≥ 200 | ≥ 200 | ≥ 200 | ≥ 200 |  | CC(C)C[C@H](NC(=O)[C@H](C)NC(=O)[C@H](C)NC(=O)[C@@H](NC(=O)[C@H](CO)NC(=O)[C@H](CC(C)C)NC(=O)[C@H](CCC(=O)O)NC(=O)[C@H](CO)NC(=O)[C@H](C)NC(=O)[C@H](CCC(=O)O)NC(=O)COCCOCCNC(=O)COCCOCCNC(=O)COCCOCCNC(=O)COCCOCCNC(=O)CC[C@H](NC(=O)CC[C@H](NC(=O)CCCCCCCCCCCCC(=O)O)C(=O)O)C(=O)O)[C@@H](C)O)C(=O)NCC(=O)N[C@@H](CCCNC(=N)N)C(=O)N[C@@H](CC(C)C)C(=O)N[C@@H](CO)C(=O)N[C@@H](C)C(=O)N[C@@H](CCC(=O)O)C(=O)N[C@@H](CC(C)C)C(=O)N[C@@H](Cc1cnc[nH]1)C(=O)N[C@@H](CCC(=O)O)C(=O)N[C@@H](CC(C)C)C(=O)N[C@@H](C)C(=O)N[C@H](C(=O)N[C@@H](CC(C)C)C(=O)N1CCC[C@H]1C(=O)N[C@@H](CCCNC(=N)N)C(=O)N[C@H](C(=O)N[C@@H](CCC(=O)O)C(=O)N[C@H](C(=O)NCC(=O)N1CCC[C@H]1C(=O)N[C@@H](CCC(=O)O)C(=O)N[C@@H](CO)C(=O)N1CCC[C@H]1C(N)=O)[C@@H](C)O)[C@@H](C)O)[C@@H](C)O ({C14 diacid-γGlu-γGlu-AEEA-AEEA-AEEA-AEEA}-EASELSTAALGRLSAELHELATLPRTETGPESP-NH2) | 3 | -3
0.006 | 0.002 | ≥ 200 | 1.19 | ≥ 200 | ≥ 200 | ≥ 200 | ≥ 200 | ≥ 200 | ≥ 200 | ≥ 200 |  | CC(C)C[C@H](NC(=O)[C@H](C)NC(=O)[C@H](C)NC(=O)[C@@H](NC(=O)[C@H](CO)NC(=O)[C@H](CC(C)C)NC(=O)[C@H](CCC(=O)O)NC(=O)[C@H](CO)NC(=O)[C@H](C)NC(=O)[C@H](CCC(=O)O)NC(=O)CCCCCCCCCCCCC(=O)O)[C@@H](C)O)C(=O)NCC(=O)N[C@@H](CCCNC(=N)N)C(=O)N[C@@H](CC(C)C)C(=O)N[C@@H](CO)C(=O)N[C@@H](C)C(=O)N[C@@H](CCC(=O)O)C(=O)N[C@@H](CC(C)C)C(=O)N[C@@H](Cc1cnc[nH]1)C(=O)N[C@@H](CCC(=O)O)C(=O)N[C@@H](CC(C)C)C(=O)N[C@@H](C)C(=O)N[C@H](C(=O)N[C@@H](CC(C)C)C(=O)N1CCC[C@H]1C(=O)N[C@@H](CCCNC(=N)N)C(=O)N[C@H](C(=O)N[C@@H](CCC(=O)O)C(=O)N[C@H](C(=O)NCC(=O)N1CCC[C@H]1C(=O)N[C@@H](CCC(=O)O)C(=O)N[C@@H](CO)C(=O)N1CCC[C@H]1C(N)=O)[C@@H](C)O)[C@@H](C)O)[C@@H](C)O ({C14 diacid}-EASELSTAALGRLSAELHELATLPRTETGPESP-NH2) | 13.5 | -4
0.004 | 0.003 | ≥ 200 | 0.329 | ≥ 200 | ≥ 200 | ≥ 200 | ≥ 200 | ≥ 200 | ≥ 200 | ≥ 200 |  | CC(C)C[C@H](NC(=O)[C@H](C)NC(=O)[C@H](C)NC(=O)[C@@H](NC(=O)[C@H](CO)NC(=O)[C@H](CC(C)C)NC(=O)[C@H](CCC(=O)O)NC(=O)[C@H](CO)NC(=O)[C@H](C)NC(=O)[C@H](CCC(=O)O)NC(=O)CCCCCCCCCCCCCCCCC(=O)O)[C@@H](C)O)C(=O)NCC(=O)N[C@@H](CCCNC(=N)N)C(=O)N[C@@H](CC(C)C)C(=O)N[C@@H](CO)C(=O)N[C@@H](C)C(=O)N[C@@H](CCC(=O)O)C(=O)N[C@@H](CC(C)C)C(=O)N[C@@H](C)C(=O)N[C@@H](CCC(=O)O)C(=O)N[C@@H](CC(C)C)C(=O)N[C@@H](C)C(=O)N[C@H](C(=O)N[C@@H](CC(C)C)C(=O)N1CCC[C@H]1C(=O)N[C@@H](CCCNC(=N)N)C(=O)N[C@H](C(=O)N[C@@H](CCC(=O)O)C(=O)N[C@H](C(=O)NCC(=O)N1CCC[C@H]1C(=O)N[C@@H](CCC(=O)O)C(=O)N[C@@H](CO)C(=O)N1CCC[C@H]1C(N)=O)[C@@H](C)O)[C@@H](C)O)[C@@H](C)O ({C18 diacid}-EASELSTAALGRLSAELAELATLPRTETGPESP-NH2) | 70 | 18
0.026 | 0.012 | ≥ 200 |  | ≥ 200 | ≥ 200 | ≥ 200 | ≥ 200 | ≥ 200 | ≥ 200 | ≥ 200 | 0.123 | CC(C)C[C@H](NC(=O)[C@H](C)NC(=O)[C@H](C)NC(=O)[C@@H](NC(=O)[C@H](CO)NC(=O)[C@H](CC(C)C)NC(=O)[C@H](CCC(=O)O)NC(=O)[C@H](CO)NC(=O)[C@H](C)NC(=O)CC[C@H](NC(=O)CCCCCCCCCCCCCCCCCCC(=O)O)C(=O)O)[C@@H](C)O)C(=O)NCC(=O)N[C@@H](Cc1cnc[nH]1)C(=O)N[C@@H](CC(C)C)C(=O)N[C@@H](CO)C(=O)N[C@@H](C)C(=O)N[C@@H](CCC(=O)O)C(=O)N[C@@H](CC(C)C)C(=O)N[C@@H](Cc1cnc[nH]1)C(=O)N[C@@H](CCC(=O)O)C(=O)N[C@@H](CC(C)C)C(=O)N[C@@H](C)C(=O)N[C@H](C(=O)N[C@@H](CC(C)C)C(=O)N1CCC[C@H]1C(=O)N[C@@H](Cc1cnc[nH]1)C(=O)N[C@H](C(=O)N[C@@H](CCC(=O)O)C(=O)N[C@H](C(=O)NCC(=O)N[C@@H](CO)C(=O)NCC(=O)N[C@@H](CO)C(=O)N1CCC[C@H]1C(N)=O)[C@@H](C)O)[C@@H](C)O)[C@@H](C)O ({C20 diacid-γGlu}-ASELSTAALGHLSAELHELATLPHTETGSGSP-NH2) | 7 | 3
